Test results as given in ChEMBL document CHEMBL4049425, “Fragment-Based, Structure-Enabled Discovery of Novel Pyridones and Pyridone Macrocycles as Potent Bromodomain and Extra-Terminal Domain (BET) Family Bromodomain Inhibitors” (J Med Chem, 2017).
The source made the active and inactive calls. The calls are words filed in the database; no cut-off is given here.

Legend:
[1] = target: T1, Bromodomain-containing protein 4 (Homo sapiens, UniProt O60885); test: Inhibition of human N-terminal His6-tagged BRD4 BD1-BD2 (57 to 550 residues) expressed in EScherichia coli BL21(DE3) after 1 hr by Alexa-647-conjugated probe based TR-FRET assay
[2] = Oral bioavailability in rat at 1 mg/kg; type: ADME, organism-based; details: in vivo
Rattus norvegicus [3] = test: Unbound clearance in rat at 1 mg/kg, iv or 1 mg/kg, po; type: ADME, organism-based; details: in vivo
[4] = target: T1, Bromodomain-containing protein 4; test: Inhibition of BRD4 in human NCI-H1299 cells after 24 hrs by Bright-Glo luciferase reporter gene assay; type: cell-based
Liver [5] = test: Unbound intrinsic clearance in mouse liver microsomes; type: ADME, microsome
Liver [6] = test: Unbound intrinsic clearance in human liver microsomes; type: ADME, microsome
[7] = Oral bioavailability in mouse at 1 mg/kg; type: ADME, organism-based; details: in vivo
[8] = Fraction unbound in mouse plasma at 1 uM after 4 hrs by LC-MS/MS analysis; type: ADME, cell-free
[9] = Fraction unbound in rat plasma; type: ADME, cell-free
MX1 = test: Antiproliferative activity against human MX1 cells after 72 hrs by Cell Titer Glo assay; type: functional, cell-based; details: MX1, 72 h
Rattus norvegicus [10] = test: Fraction absorbed in portal vein of rat at 1 mg/kg, iv or 1 mg/kg, po; type: ADME, organism-based; details: in vivo
Mus musculus [11] = test: Unbound clearance in mouse at 1 mg/kg, iv or 1 mg/kg, po; type: ADME, organism-based; details: in vivo
[12] = Lipophilicity, log D of the compound; type: physicochemical; details: octanol/water
Mus musculus [13] = test: Unbound AUC in mouse at 1 mg/kg, po; type: ADME, organism-based; details: in vivo
Mus musculus [14] = test: Fraction absorbed in portal vein of mouse at 1 mg/kg, iv or 1 mg/kg, po; type: ADME, organism-based; details: in vivo
Rattus norvegicus [15] = test: Unbound AUC in rat at 1 mg/kg, po; type: ADME, organism-based; details: in vivo
[16] = Permeability of the compound by PAMPA; type: physicochemical; details: read-out: permeability
Liver [17] = test: Unbound intrinsic clearance in rat liver microsomes; type: ADME, microsome
OPM-2 [18] = test: Antitumor activity against human OPM2 cells xenografted in SCID-Beige mouse assessed as tumor growth inhibition at 3 mg/kg, po qd for 21 days relative to control; type: functional; details: OPM-2, po, 504 h, read-out: TGI
Plasma [19] = test: Free plasma concentration required to reach in vitro EC50 for human OPM2 cells in SCID-Beige mouse xenografted with human OPM2 cells at 1 to 3 mg/kg, po
OPM-2 [20] = test: Antiproliferative activity against human OPM2 cells; type: functional, cell-based
Mus musculus [21] = test: Unbound plasma clearance in mouse at 3 mg/kg, iv or 10 mg/kg, po; type: ADME, organism-based; details: in vivo
Mus musculus [22] = test: Toxicity in SCID-Beige mouse xenografted with human OPM2 cells assessed as weight loss at 1 mg/kg, po qd for 21 days (reference value: 2%); type: organism-based; details: in vivo, 504 h
Mus musculus [23] = test: Toxicity in SCID-Beige mouse xenografted with human OPM2 cells assessed as weight loss at 3 mg/kg, po qd for 21 days (reference value: 2%); type: organism-based; details: in vivo, 504 h
Mus musculus [24] = test: Time required to reach in vitro EC50 for human OPM2 cells in SCID-Beige mouse xenografted with human OPM2 cells at 3 mg/kg, po
Mus musculus [25] = test: Dose normalized fAUC in mouse at 3 mg/kg, iv or 10 mg/kg, po; type: ADME, organism-based; details: in vivo
OPM-2 [26] = test: Antitumor activity against human OPM2 cells xenografted in SCID-Beige mouse assessed as tumor growth inhibition at 1 to 3 mg/kg, po qd measured after 21 days; type: functional, organism-based
[27] = Fraction unbound in SCID-Beige mouse plasma xenografted with human OPM2 cells at 1 to 3 mg/kg, po; type: ADME, organism-based
[28] = Oral bioavailability in mouse at 10 mg/kg; type: ADME, organism-based; details: in vivo
OPM-2 [29] = test: Antitumor activity against human OPM2 cells xenografted in SCID-Beige mouse assessed as tumor growth inhibition at 1 mg/kg, po qd for 21 days relative to control; type: functional; details: OPM-2, po, 504 h, read-out: TGI
Mus musculus [30] = test: Fraction absorbed in portal vein of mouse at 3 mg/kg, iv or 10 mg/kg, po; type: ADME, organism-based; details: in vivo
Mus musculus [31] = test: Toxicity in SCID-Beige mouse xenografted with human OPM2 cells assessed as weight loss at 2 mg/kg, po qd for 21 days (reference value: 2%); type: organism-based; details: in vivo, 504 h
OPM-2 [32] = test: Antitumor activity against human OPM2 cells xenografted in SCID-Beige mouse assessed as tumor growth inhibition compound administered po qd for 21 days; type: functional, organism-based
Mus musculus [33] = test: Time required to reach in vitro EC50 for human OPM2 cells in SCID-Beige mouse xenografted with human OPM2 cells at 2 mg/kg, po
Plasma [34] = test: Free plasma concentration required to reach in vitro EC50 for human OPM2 cells in SCID-Beige mouse xenografted with human OPM2 cells at 1 to 2 mg/kg, po
[35] = Fraction unbound in SCID-Beige mouse plasma xenografted with human OPM2 cells at 1 to 2 mg/kg, po; type: ADME, organism-based
OPM-2 [36] = test: Antitumor activity against human OPM2 cells xenografted in SCID-Beige mouse assessed as tumor growth inhibition at 2 mg/kg, po qd for 21 days relative to control; type: functional; details: OPM-2, po, 504 h, read-out: TGI

Ki [1] [nM]	bioavailability [2] [%]	CL free (Rattus norvegicus [3]) [mL/min/kg]	EC50 [4] [nM]	CL free (Liver [5]) [mL/min/kg]	CL free (Liver [6]) [mL/min/kg]	bioavailability [7] [%]	fraction unbound at 4 h, 1 µM [8]	fraction unbound [9]	FaFg (Rattus norvegicus [10])	CL free (Mus musculus [11]) [mL/min/kg]	logD [12]	fAUC (Mus musculus [13]) [ng·h/mL]	FaFg (Mus musculus [14])	fAUC (Rattus norvegicus [15]) [ng·h/mL]	Papp [16] [×10⁻⁶ cm/s]	CL free (Liver [17]) [mL/min/kg]	Compound	EC50 (MX1) [nM]	EC50 (OPM-2 [20]) [nM]	Activity (Mus musculus [22]) [%]	further results
11	2.8	142	24	158	56.7	45	0.12	0.24	0.42	88.3	2.8 to 4.3	85	0.51	2	12	107	Cn1cc2c(cc1=O)OCCCCc1cc(Cl)ccc1Oc1ncc(CS(C)(=O)=O)cc1-2	24	–	–	–
13	–	–	56	267	76.7	–	0.14	–	–	–	2.8 to 4.3	–	–	–	–	250	CCS(=O)(=O)Nc1ccc(Oc2ccc(F)cc2F)c(-c2cn(C)c(=O)cc2OC)c1	47	23	6	inhibition in vivo at 3 mg/kg (OPM-2 [18]): 73%; Cp(f) (Plasma [19]): 0.16 µM; CL free (Mus musculus [21]): 183 mL/min/kg; Activity (Mus musculus [23]): 5%; Time (Mus musculus [24]): 6.5 h; fAUC/dose (Mus musculus [25]): 0.081 µg·h/mL per mg/kg; TGI (OPM-2 [26]): inactive; fraction unbound [27]: 0.14; bioavailability [28]: 63%; inhibition in vivo at 1 mg/kg (OPM-2 [29]): 66%; FaFg (Mus musculus [30]): 0.89
1.5	16	2330	5.1	2330	< 217	39	0.01	0.02	0.44	417	2.8 to 4.3	16	0.41	1	2.2	433	CCS(=O)(=O)Nc1ccc2c(c1)-c1cn(C)c(=O)cc1OCCCCc1cc(Cl)ccc1O2	5.7	–	–	–
8.9	95	233	34	267	58.3	84	0.04	0.09	1	140	2.8 to 4.3	100	0.9	69	15	73.3	CCS(=O)(=O)c1cnc2c(c1)-c1cn(C)c(=O)cc1OCCCCc1cc(Cl)ccc1O2	33	12	4	Activity (Mus musculus [31]): 4%; TGI (OPM-2 [32]): Dose-dependent effect; Time (Mus musculus [33]): >12 h; Cp(f) (Plasma [34]): 0.3 µM; fraction unbound [35]: 0.04; inhibition in vivo at 1 mg/kg (OPM-2 [29]): 73%; inhibition in vivo at 2 mg/kg (OPM-2 [36]): 85%
